Data as given in patent US8912120B2, “Herbicidal compositions comprising 4-amino-3-chloro-5-fluoro-6-(4-chloro-2-fluoro-3-methoxyphenyl) pyridine-2-carboxylic acid or a derivative thereof and synthetic auxin herbicides” (Dow AgroSciences, LLC., priority 2012, dated 2014).
Like-named read-outs stand apart in the source and are kept apart here.

What was measured:
SCPMA = test: Example II: in-water applied herbicidal mixtures, transplanted paddy rice, SCPMA; format: in vivo; conditions: for Visual Weed Control (%) - 20 DAA SCPMA Obs: in-water application
Procedure: (§1) The prepared mud was dispensed in 365 mL aliquots into 16-ounce (oz.) non-perforated plastic pots with a surface area of 86.59 square centimeters (cm^2) leaving a headspace of 3 centimeters (cm) in each pot Mud was allowed to dry overnight prior to planting or transplanting. Rice seeds were planted in Sun Gro MetroMix® 306 planting mixture, which typically has a pH of 6.0 to 6.8 and an organic matter content of about 30 percent, in plastic plug trays. Seedlings at the second or third leaf stage of growth were transplanted into 840 mL of mud contained in 32-oz. non-perforated plastic pots with a surface area of 86.59 cm^2 4 days prior to herbicide application. […] Nutrients were added as Osmocote® (19:6:12, N:P:K^+ minor nutrients) at 2 g per 16-oz. pot and 4 g per 32-oz. pot.
(§2) Applications were made by injecting with a pipetter appropriate amounts of the application solutions, individually and sequentially, into the aqueous layer of the paddy. Control plants were treated in the same manner with the solvent blank. Applications were made so that all treated plant material received the same concentrations of acetone and crop oil concentrate.

CYPRO = test: Example II: in-water applied herbicidal mixtures, weed control in transplanted paddy rice (greenhouse), CYPRO; format: in vivo, Cyperus rotundus (purple nutsedge); conditions: for Visual Weed Control (%) - 20 DAA CYPRO Obs / Visual Weed Control (%) - 21 DAA CYPRO Obs / Visual Weed Control (%) - 22 DAA CYPRO Obs: in-water application
Procedure: as §1, §2

LEFCH [1] = test: Example I: postemergence foliar-applied herbicidal mixtures, direct seeded rice, LEFCH; format: in vivo, Leptochloa chinensis (Chinese sprangletop)
Procedure: (§4) The soil matrix was contained in plastic pots with a volume of 1 quart and a surface area of 83.6 square centimeters (cm^2). […] The plants were grown for 8-22 days in a greenhouse with an approximate 14 h photoperiod which was maintained at about 29° C. during the day and 26° C. during the night. Nutrients (Peters Excel® 15-5-15 5-Ca 2-Mg and iron chelate) were applied in the irrigation solution as needed and water was added on a regular basis. Supplemental lighting was provided with overhead metal halide 1000-Watt lamps as necessary. The plants were employed for testing when they reached the first through fourth true leaf stage.
(§5) Treatments consisted of the acid or esters of 4-amino-3-chloro-5-fluoro-6-(4-chloro-2-fluoro-3-methoxy-phenyl)pyridine-2-carboxylic acid (Compound A), each formulated as an SC (suspension concentrate), and various herbicidal components alone and in combination. Forms of compound A were applied on an acid equivalent basis.
(§6) For treatments comprised of formulated compounds, measured amounts of compounds were placed individually in 25 mL glass vials and diluted in a volume of 1.25% (v/v) Agri-Dex® crop oil concentrated to obtain 12× stock solutions. […] Application solutions were prepared by adding an appropriate amount of each stock solution (e.g., 1 mL) and diluted to the appropriate final concentrations with the addition of 10 mL of an aqueous mixture of 1.25% (v/v) crop oil concentrate so that the final spray solutions contained 1.25+/−0.05% (v/v) crop oil concentrate.
(§7) All stock solutions and applications solutions were visually inspected for compound compatibility prior to application. Spray solutions were applied to the plant material with an overhead Mandel track sprayer equipped with a 8002E nozzles calibrated to deliver 187 L/ha over an application area of 0.503 m^2 at a spray height of 18 to 20 inches (46 to 50 cm) above average plant canopy height. Control plants were sprayed in the same manner with the solvent blank.
(§8) The treated plants and control plants were placed in a greenhouse as described above and watered by sub-irrigation to prevent wash-off of the test compounds. After approximately 3 weeks, the condition of the test plants as compared with that of the untreated plants was determined visually and scored on a scale of 0 to 100 percent where 0 corresponds to no injury or growth inhibition and 100 corresponds to complete kill.
(§9) Colby's equation was used to determine the herbicidal effects expected from the mixtures (Colby, S. R. 1967. Calculation of the synergistic and antagonistic response of herbicide combinations. Weeds 15:20-22).
(§10) The following equation was used to calculate the expected activity of mixtures containing two active ingredients, A and B: Expected=A+B−(A×B/100)
(§11) A=observed efficacy of active ingredient A at the same concentration as used in the mixture.
(§12) B=observed efficacy of active ingredient B at the same concentration as used in the mixture.

DIGSA = test: Example I: postemergence foliar-applied herbicidal mixtures, direct seeded rice, DIGSA; conditions: 21.2 gae/ha
Procedure: as §4, §5, §6, §7, §8, §9, §10, §11, §12

ECHCO = test: Example I: postemergence foliar-applied herbicidal mixtures, direct seeded rice, ECHCO
Procedure: as §4, §5, §6, §7, §8, §9, §10, §11, §12

CYPIR = test: Example I: postemergence foliar-applied herbicidal mixtures, direct seeded rice, CYPIR; format: in vivo, Cyperus iria (rice flatsedge); conditions: 5.3 gae/ha
ECHCG [2] = test: Example I: postemergence foliar-applied herbicidal mixtures, direct seeded rice, ECHCG
ECHOR = test: Example II: in-water applied herbicidal mixtures, transplanted paddy rice, ECHOR; format: in vivo, Echinochloa oryzoides (early watergrass)
How it was run: (§3)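 Flooded-mud greenhouse setup with rice transplanted at the 2–3 leaf stage, 4 days before herbicides were added to the water layer by pipette; solvent content matched across all pots.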

ECHCG [3] = test: Example II: in-water applied herbicidal mixtures, transplanted paddy rice, ECHCG; format: in vivo, Echinochloa crus-galli (barnyardgrass); conditions: for Visual Weed Control (%) - 21 DAA ECHCG Obs / Visual Weed Control (%) - 22 DAA ECHCG Obs: in-water application
How it was run: as §3

LEFCH [4] = test: Example II: in-water applied herbicidal mixtures, transplanted paddy rice, LEFCH; format: in vivo, Leptochloa chinensis (Chinese sprangletop)
How it was run: as §3

IPOHE = test: Example I: postemergence foliar-applied herbicidal mixtures, direct seeded rice, IPOHE; format: in vivo, Ipomoea hederacea (ivyleaf morningglory)
Procedure: as §4, §5, §6, §7, §8, §9, §10, §11, §12

[5] = 8.75 gae/ha, in-water application
[6] = 17.5 gae/ha, in-water application
[7] = 35 gae/ha, in-water application
[8] = 42.4 gae/ha, in-water application

COc1c(Cl)ccc(-c2nc(C(=O)O)c(Cl)c(N)c2F)c1F [Compound A Acid, 4-amino-3-chloro-6-(4-chloro-2-fluoro-3-methoxyphenyl)-5-fluoropyridine-2-carboxylic acid]
75%: Visual Weed Control (%) - 21 DAA ECHCO Obs (ECHCO; 8.75 gae/ha)
0%: Visual Weed Control (%) - 20 DAA SCPMA Obs (SCPMA; 8.75 gae/ha) | Visual Weed Control (%) - 20 DAA SCPMA Obs (SCPMA; 17.5 gae/ha) | Visual Weed Control (%) Obs (SCPMA; 20 DAA, 42.4 gae/ha) | Visual Weed Control (%) Obs (SCPMA; 20 DAA, 84.8 gae/ha) | Visual Weed Control (%) Obs (SCPMA; 21 DAA, 42.4 gae/ha) | Visual Weed Control (%) Obs (SCPMA; 22 DAA, 8.75 gae/ha) | Visual Weed Control (%) Obs (SCPMA; 22 DAA, 16 gae/ha) | Visual Weed Control (%) Obs (SCPMA; 22 DAA, 17.5 gae/ha) | Visual Weed Control (%) Obs (SCPMA; 22 DAA, 32 gae/ha) | Visual Weed Control (%) Obs (SCPMA; 22 DAA, 35 gae/ha) | Visual Weed Control (%) - 20 DAA SCPMA Obs (SCPMA; 35 gae/ha) | Visual Weed Control (%) - 20 DAA CYPRO Obs (CYPRO; 8.75 gae/ha) | Visual Weed Control (%) - 21 DAA CYPRO Obs (CYPRO; 8.75 gae/ha) | Visual Weed Control (%) - 22 DAA CYPRO Obs (CYPRO; 8.75 gae/ha) | Visual Weed Control (%) Obs (CYPRO; 22 DAA, 8.75 gae/ha) | Visual Weed Control (%) Obs (CYPRO; 22 DAA, 10.6 gae/ha) | Visual Weed Control (%) - 20 DAA LEFCH Obs (LEFCH [1]; 4.38 gae/ha) | Visual Weed Control (%) - 20 DAA LEFCH Obs (LEFCH [1]; 8.75 gae/ha) | Visual Weed Control (%) - 22 DAA ECHOR Obs (ECHOR; [5]) | Visual Weed Control (%) - 25 DAA ECHOR Obs (ECHOR; [5]) | Visual Weed Control (%) - 22 DAA ECHOR Obs (ECHOR; [6]) | Visual Weed Control (%) - 25 DAA ECHOR Obs (ECHOR; [6]) | pest or weed control at 8.75 g/ha (ECHOR; Echinochloa oryzoides, 504 h, 21 DAA, 8.75 gae/ha, read-out: Visual Weed Control (%) Obs) | pest or weed control at 17.5 g/ha (ECHOR; Echinochloa oryzoides, 504 h, 21 DAA, 17.5 gae/ha, read-out: Visual Weed Control (%) Obs) | pest or weed control at 8.75 g/ha (ECHOR; Echinochloa oryzoides, 528 h, 22 DAA, 8.75 gae/ha, read-out: Visual Weed Control (%) Obs) | pest or weed control at 17.5 g/ha (ECHOR; Echinochloa oryzoides, 528 h, 22 DAA, 17.5 gae/ha, read-out: Visual Weed Control (%) Obs) | pest or weed control at 8.75 g/ha (ECHOR; Echinochloa oryzoides, 600 h, 25 DAA, 8.75 gae/ha, read-out: Visual Weed Control (%) Obs) | pest or weed control at 17.5 g/ha (ECHOR; Echinochloa oryzoides, 600 h, 25 DAA, 17.5 gae/ha, read-out: Visual Weed Control (%) Obs) | Visual Weed Control (%) - 21 DAA ECHCG Obs (ECHCG [3]; 8.75 gae/ha) | Visual Weed Control (%) - 22 DAA ECHCG Obs (ECHCG [3]; 8.75 gae/ha) | Visual Weed Control (%) - 21 DAA ECHCG Obs (ECHCG [3]; 17.5 gae/ha) | Visual Weed Control (%) Obs (ECHCG [3]; 21 DAA, 10.6 gae/ha) | Visual Weed Control (%) Obs (ECHCG [3]; 22 DAA, 8.75 gae/ha) | Visual Weed Control (%) Obs (ECHCG [3]; 25 DAA, 8.75 gae/ha) | Visual Weed Control (%) Obs (ECHCG [3]; 25 DAA, 17.5 gae/ha) | Visual Weed Control (%) - 21 DAA LEFCH Obs (LEFCH [4]; [5]) | Visual Weed Control (%) - 21 DAA LEFCH Obs (LEFCH [4]; [6])
15%: Visual Weed Control (%) - 21 DAA ECHCG Obs (ECHCG [2]; 4.38 gae/ha) | Visual Weed Control (%) - 21 DAA ECHOR Obs (ECHOR; [6]) | Visual Weed Control (%) - 19 DAA ECHOR Obs (ECHOR; [8]) | pest or weed control at 42.4 g/ha (ECHOR; Echinochloa oryzoides, 456 h, 19 DAA, 42.4 gae/ha, read-out: Visual Weed Control (%) Obs) | pest or weed control at 42.4 g/ha (ECHOR; Echinochloa oryzoides, 504 h, 21 DAA, 42.4 gae/ha, read-out: Visual Weed Control (%) Obs) | Visual Weed Control (%) - 20 DAA IPOHE Obs (IPOHE; 8.75 gae/ha)
10%: Visual Weed Control (%) Obs (CYPRO; 20 DAA, 10.6 gae/ha) | Visual Weed Control (%) - 20 DAA LEFCH Obs (LEFCH [1]; 5.3 gae/ha) | Visual Weed Control (%) - 20 DAA LEFCH Obs (LEFCH [1]; 17.5 gae/ha) | Visual Weed Control (%) - 21 DAA DIGSA Obs (DIGSA) | Visual Weed Control (%) - 20 DAA ECHOR Obs (ECHOR; [5]) | Visual Weed Control (%) - 21 DAA ECHOR Obs (ECHOR; [5]) | Visual Weed Control (%) - 19 DAA LEFCH Obs (LEFCH [4]; [8]) | Visual Weed Control (%) - 20 DAA IPOHE Obs (IPOHE; 4.38 gae/ha)
80%: Visual Weed Control (%) - 19 DAA ECHCG Obs (ECHCG [2]; 19.4 gae/ha)
85%: Visual Weed Control (%) - 21 DAA CYPRO Obs (CYPRO; 35 gae/ha) | Visual Weed Control (%) Obs (LEFCH [4]; 25 DAA, 35 gae/ha) | Visual Weed Control (%) - 25 DAA LEFCH Obs (LEFCH [4]; [7])
33%: pest or weed control at 84.8 g/ha (ECHOR; Echinochloa oryzoides, 480 h, 20 DAA, 84.8 gae/ha, read-out: Visual Weed Control (%) Obs)
25%: Visual Weed Control (%) - 20 DAA ECHOR Obs (ECHOR; [6]) | Visual Weed Control (%) - 20 DAA ECHOR Obs (ECHOR; [7]) | Visual Weed Control (%) Obs (ECHCG [3]; 22 DAA, 21.2 gae/ha) | Visual Weed Control (%) Obs (ECHCG [3]; 22 DAA, 35 gae/ha) | Visual Weed Control (%) - 22 DAA ECHCG Obs (ECHCG [3]; 35 gae/ha)
65%: Visual Weed Control (%) - 20 DAA CYPIR Obs (CYPIR)
20%: Visual Weed Control (%) - 22 DAA CYPRO Obs (CYPRO; 17.5 gae/ha) | Visual Weed Control (%) Obs (CYPRO; 20 DAA, 21.2 gae/ha) | Visual Weed Control (%) Obs (CYPRO; 22 DAA, 17.5 gae/ha) | Visual Weed Control (%) - 21 DAA ECHOR Obs (ECHOR; [7]) | Visual Weed Control (%) - 22 DAA ECHOR Obs (ECHOR; [7]) | pest or weed control at 35 g/ha (ECHOR; Echinochloa oryzoides, 504 h, 21 DAA, 35 gae/ha, read-out: Visual Weed Control (%) Obs) | pest or weed control at 35 g/ha (ECHOR; Echinochloa oryzoides, 528 h, 22 DAA, 35 gae/ha, read-out: Visual Weed Control (%) Obs) | Visual Weed Control (%) - 22 DAA ECHCG Obs (ECHCG [3]; 17.5 gae/ha) | Visual Weed Control (%) Obs (ECHCG [3]; 20 DAA, 10.6 gae/ha) | Visual Weed Control (%) Obs (ECHCG [3]; 20 DAA, 21.2 gae/ha) | Visual Weed Control (%) Obs (ECHCG [3]; 22 DAA, 17.5 gae/ha) | Visual Weed Control (%) - 21 DAA ECHCG Obs (ECHCG [3]; 35 gae/ha) | Visual Weed Control (%) Obs (LEFCH [4]; 22 DAA, 10.6 gae/ha)
5%: Visual Weed Control (%) - 19 DAA LEFCH Obs (LEFCH [1]; 19.4 gae/ha)
30%: Visual Weed Control (%) Obs (SCPMA; 22 DAA, 64 gae/ha) | Visual Weed Control (%) - 21 DAA CYPRO Obs (CYPRO; 17.5 gae/ha) | pest or weed control at 21.2 g/ha (ECHOR; Echinochloa oryzoides, 480 h, 20 DAA, 21.2 gae/ha, read-out: Visual Weed Control (%) Obs) | Visual Weed Control (%) Obs (ECHCG [3]; 22 DAA, 42.4 gae/ha) | Visual Weed Control (%) - 21 DAA LEFCH Obs (LEFCH [4]; [7]) | Visual Weed Control (%) - 20 DAA IPOHE Obs (IPOHE; 17.5 gae/ha)
50%: Visual Weed Control (%) Obs (CYPRO; 22 DAA, 35 gae/ha) | Visual Weed Control (%) - 22 DAA CYPRO Obs (CYPRO; 35 gae/ha) | Visual Weed Control (%) - 21 DAA ECHCG Obs (ECHCG [2]; 8.75 gae/ha) | Visual Weed Control (%) Obs (ECHCG [3]; 20 DAA, 42.4 gae/ha) | Visual Weed Control (%) - 25 DAA LEFCH Obs (LEFCH [4]; [5]) | Visual Weed Control (%) - 25 DAA LEFCH Obs (LEFCH [4]; [6]) | Visual Weed Control (%) Obs (LEFCH [4]; 25 DAA, 8.75 gae/ha) | Visual Weed Control (%) Obs (LEFCH [4]; 25 DAA, 17.5 gae/ha)
60%: Visual Weed Control (%) Obs (LEFCH [4]; 22 DAA, 42.4 gae/ha)
40%: Visual Weed Control (%) Obs (CYPRO; 22 DAA, 21.2 gae/ha) | Visual Weed Control (%) - 25 DAA ECHOR Obs (ECHOR; [7]) | pest or weed control at 35 g/ha (ECHOR; Echinochloa oryzoides, 600 h, 25 DAA, 35 gae/ha, read-out: Visual Weed Control (%) Obs) | Visual Weed Control (%) Obs (LEFCH [4]; 22 DAA, 21.2 gae/ha)
70%: Visual Weed Control (%) - 20 DAA CYPRO Obs (CYPRO; 17.5 gae/ha) | Visual Weed Control (%) - 21 DAA ECHCO Obs (ECHCO; 4.38 gae/ha) | Visual Weed Control (%) Obs (ECHCG [3]; 25 DAA, 35 gae/ha)
